Which logP does the source give for `CC1CCCCC1` here?
The logP was 4.17.

With `C/C=C/CCCCC` as the molecule, how does the logP read?
Its logP is 4.51.

Which logP does the source give for `CCc1ccccc1CC` here?
The logP was 4.1.

Which logP does the source give for `CCCCCCCCCCCCc1ccc(O)cc1O` here?
The logP was 5.32.

Which logP does the source give for `Oc1cccc2c1CCCC2` here?
The logP was 2.87.

For `Cc1cccc2[nH]ccc12`, which logP is on record?
Its logP is 2.54.

With `Cc1[nH]c2ccccc2c1C` as the molecule, how does the logP read?
The logP was 2.51.

With `CCC1CCCCC1` as the molecule, how does the logP read?
Its logP is 4.56.

With `CCCCCCc1ccc(O)cc1O` as the molecule, how does the logP read?
The logP was 3.07.

For `CCCCCCCc1ccccc1`, which logP is on record?
Its logP is 5.37.

Which logP does the source give for `CCc1ccc(CC)cc1` here?
The logP was 4.22.

With `OCc1ccc2ccccc2c1` as the molecule, how does the logP read?
The logP was 2.42.

With `CC(C)(C)C1CCCCC1` as the molecule, how does the logP read?
The logP was 5.04.

With `CCn1c2ccccc2c2ccccc21` as the molecule, how does the logP read?
The logP was 3.97.

With `Oc1ccc(O)c2ccccc12` as the molecule, how does the logP read?
Its logP is 2.24.

With `CCc1cccc(CC)c1` as the molecule, how does the logP read?
The logP was 4.16.

Which logP does the source give for `CCc1ccccc1O` here?
The logP was 2.36.

For `OCc1c2ccccc2cc2ccccc12`, which logP is on record?
Its logP is 3.04.

For `O=Cc1ccc(Cl)cc1`, which logP is on record?
The logP was 2.34.
